# Reference: patent US10681909B2, “Herbicidal triazoles” (FMC Corporation, priority 2014, dated 2020)
# Key:
# wheat, winter = test: Test D preemergence; type: in vivo, Triticum aestivum; conditions: for Plant response rating (0 to 100), Wheat, Winter: 16 g ai/ha, 0 is no effect, 100 is complete control; for Plant response rating: Wheat, Winter: scale 0 to 100
# Source text: (§1) Seeds of plant species selected from bluegrass (annual bluegrass, Poa annua), blackgrass (Alopecurus myosuroides), canarygrass (Phalaris minor), chickweed (common chickweed, Stellaria media), galium (catchweed bedstraw, Galium aparine), bromegrass, down (downy bromegrass, Bromus tectorum), Russian thistle (Salsola kali), field poppy (Papaver rhoeas), field violet (Viola arvensis), foxtail, green (green foxtail, Setaria viridis), deadnettle (henbit deadnettle, Lamium amplexicaule), ryegrass, Ital. (Italian ryegrass, Lolium multiflorum), kochia (Kochia scoparia), lambsquarters (Chenopodium album), oilseed rape (Brassica napus), pigweed (Amaranthus retroflexus), chamomile (scentless chamomile, Matricaria inodora), speedwell (bird's-eye speedwell, Veronica persica), barley, spring (spring barley, Hordeum vulgare), wheat, spring (spring wheat, Triticum aestivum), buckwheat, wild (wild buckwheat, Polygonum convolvulus), wild mustard (Sinapis arvensis), oat, wild (wild oat, Avena fatua), radish, wild (wild radish, Raphanus raphanistrum), […]), barley, winter (winter barley, Hordeum vulgare), and wheat, winter (winter wheat, Triticum aestivum) were planted into a silt loam soil and treated preemergence with test chemicals formulated in a non-phytotoxic solvent mixture which included a surfactant. At the same time, these species were planted in pots containing Sunshine Redi-Earth® planting medium comprising spaghnum peat moss, vermiculite, starter nutrients and dolomitic limestone and treated with postemergence applications of the test chemicals formulated in the same manner. Plants ranged in height from 2 to 18 cm (1- to 4-leaf stage). Treated plants and controls were maintained in a controlled growth environment for 14 to 21 d after which time all species were compared to controls and visually evaluated. […] A dash (-) response means no test result.
# wheat, spring = test: Test D preemergence; type: in vivo, Triticum aestivum; conditions: for Plant response rating (0 to 100), Wheat, Spring: 16 g ai/ha, 0 is no effect, 100 is complete control; for Plant response rating: Wheat, Spring: scale 0 to 100
# Source text: as §1
# ragweed = test: Test A postemergence; type: in vivo, Ambrosia elatior; conditions: 0 to 100 scale (0 no effect, 100 complete control), approx. 10 d
# Outline: (§2)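 Visual injury score, 0 (no effect) to 100 (complete control), taken about 10 d after treatment against untreated greenhouse controls. Chemicals formulated in non-phytotoxic solvent plus surfactant; preemergence by directed soil spray onto sown loam/sand, postemergence onto one- to two-leaf plants.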
# deadnettle = test: Test D postemergence; type: in vivo, Lamium amplexicaule; conditions: scale 0 to 100
# Source text: as §1
# barnyardgrass = test: Test C preemergence; type: in vivo, Echinochloa crus-galli; conditions: for Plant response rating (scale of 0 to 100 where 0 is no effect and 100 is complete control): Barnyardgrass, preemergence; for Barnyardgrass plant response rating (0 to 100): Preemergence, visual rating after 13 to 15 d
# Outline: (§3)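 Pre: seeded into loam/sand, sprayed same time. Post: plants in peat moss–vermiculite mix with starter nutrients and dolomitic limestone, treated at 1- to 4-leaf stage (2 to 18 cm). Formulation: non-phytotoxic solvent blend plus surfactant.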
# kochia [1] = test: Test D postemergence; type: in vivo, Kochia scoparia; conditions: scale 0 to 100
# Source text: as §1
# bluegrass = test: Test D preemergence; type: in vivo, Poa annua; conditions: for Plant response rating (0 to 100), Bluegrass: 16 g ai/ha, 0 is no effect, 100 is complete control; for Plant response rating: Bluegrass: scale 0 to 100
# Source text: as §1
# oilseed rape = test: Test C preemergence; type: in vivo, Brassica napus; conditions: for Plant response rating (scale of 0 to 100 where 0 is no effect and 100 is complete control): Oilseed Rape, preemergence; for Oilseed Rape plant response rating (0 to 100): Preemergence, visual rating after 13 to 15 d
# Outline: as §3
# johnsongrass = test: Test C preemergence; type: in vivo, Sorghum halepense; conditions: for Plant response rating (scale of 0 to 100 where 0 is no effect and 100 is complete control): Johnsongrass, preemergence; for Johnsongrass plant response rating (0 to 100): Preemergence, visual rating after 13 to 15 d
# Outline: as §3
# ryegrass, Ital. = test: Test D postemergence; type: in vivo, Lolium multiflorum; conditions: scale 0 to 100
# Source text: as §1
# kochia [2] = test: Test A preemergence; type: in vivo, Kochia scoparia; conditions: 0 to 100 scale (0 no effect, 100 complete control)
# Outline: as §2
# buckwheat, wild = test: Test D preemergence; type: in vivo, Polygonum convolvulus; conditions: for Plant response rating (0 to 100), Buckwheat, Wild: 16 g ai/ha, 0 is no effect, 100 is complete control; for Plant response rating: Buckwheat, Wild: scale 0 to 100
# Source text: as §1
smiles,measurement,setting,value
"CCOc1nc(-c2ccc(C(F)(F)F)cc2)nn1Cc1ccnc(C(F)(F)F)c1 [Compound 35, 4-[[5-ethoxy-3-[4-(trifluoromethyl)phenyl]-1H-1,2,4-triazole-1-yl]methyl]-2-(trifluoromethyl)pyridine]","Plant response rating (0 to 100), Wheat, Winter","wheat, winter",20
same,"Plant response rating: Wheat, Winter","wheat, winter; 62 g ai/ha",40
same,"Plant response rating: Wheat, Winter","wheat, winter; 125 g ai/ha",45
same,"Plant response rating (0 to 100), Wheat, Spring","wheat, spring",25
same,"Plant response rating: Wheat, Spring","wheat, spring; 62 g ai/ha",50
same,"Plant response rating: Wheat, Spring","wheat, spring; 125 g ai/ha",50
same,"Plant response rating, Ragweed",ragweed; 31 g ai/ha,20
same,"Plant response rating, Ragweed",ragweed; 125 g ai/ha,60
same,Plant response rating: Deadnettle,deadnettle; 16 g ai/ha,55
same,Plant response rating: Deadnettle,deadnettle; 31 g ai/ha,65
same,Plant response rating: Deadnettle,deadnettle; 62 g ai/ha,75
same,Plant response rating: Deadnettle,deadnettle; 125 g ai/ha,90
same,Plant response rating (scale of 0 to 100 where 0 is no effect and 100 is complete control),barnyardgrass; 125 g ai/ha,98
same,Plant response rating (scale of 0 to 100 where 0 is no effect and 100 is complete control),barnyardgrass; 250 g ai/ha,100
same,Barnyardgrass plant response rating (0 to 100),barnyardgrass; 31 g ai/ha,85
same,Barnyardgrass plant response rating (0 to 100),barnyardgrass; 62 g ai/ha,90
same,Plant response rating: Kochia,kochia [1]; 16 g ai/ha,90
same,Plant response rating: Kochia,kochia [1]; 31 g ai/ha,90
same,Plant response rating: Kochia,kochia [1]; 62 g ai/ha,90
same,Plant response rating: Kochia,kochia [1]; 125 g ai/ha,90
same,"Plant response rating (0 to 100), Bluegrass",bluegrass,70
same,Plant response rating: Bluegrass,bluegrass; 31 g ai/ha,80
same,Plant response rating: Bluegrass,bluegrass; 62 g ai/ha,95
same,Plant response rating: Bluegrass,bluegrass; 125 g ai/ha,100
same,Plant response rating (scale of 0 to 100 where 0 is no effect and 100 is complete control),oilseed rape; 125 g ai/ha,90
same,Plant response rating (scale of 0 to 100 where 0 is no effect and 100 is complete control),oilseed rape; 250 g ai/ha,90
same,Oilseed Rape plant response rating (0 to 100),oilseed rape; 31 g ai/ha,80
same,Oilseed Rape plant response rating (0 to 100),oilseed rape; 62 g ai/ha,75
same,Plant response rating (scale of 0 to 100 where 0 is no effect and 100 is complete control),johnsongrass; 125 g ai/ha,95
same,Plant response rating (scale of 0 to 100 where 0 is no effect and 100 is complete control),johnsongrass; 250 g ai/ha,98
same,Johnsongrass plant response rating (0 to 100),johnsongrass; 31 g ai/ha,90
same,Johnsongrass plant response rating (0 to 100),johnsongrass; 62 g ai/ha,95
same,"Plant response rating: Ryegrass, Ital.","ryegrass, Ital.; 16 g ai/ha",30
same,"Plant response rating: Ryegrass, Ital.","ryegrass, Ital.; 31 g ai/ha",60
same,"Plant response rating: Ryegrass, Ital.","ryegrass, Ital.; 62 g ai/ha",65
same,"Plant response rating: Ryegrass, Ital.","ryegrass, Ital.; 125 g ai/ha",75
same,"Plant response rating, Kochia",kochia [2]; 31 g ai/ha,90
same,"Plant response rating, Kochia",kochia [2]; 125 g ai/ha,90
same,"Plant response rating (0 to 100), Buckwheat, Wild","buckwheat, wild",65
same,"Plant response rating: Buckwheat, Wild","buckwheat, wild; 31 g ai/ha",70
same,"Plant response rating: Buckwheat, Wild","buckwheat, wild; 62 g ai/ha",70
same,"Plant response rating: Buckwheat, Wild","buckwheat, wild; 125 g ai/ha",95
CCOc1nc(-c2ccccc2)nn1Cc1ccnc(C(F)(F)F)c1 [Compound 27],"Plant response rating (0 to 100), Wheat, Winter","wheat, winter",25
same,"Plant response rating: Wheat, Winter","wheat, winter; 62 g ai/ha",30
same,"Plant response rating: Wheat, Winter","wheat, winter; 125 g ai/ha",30
same,"Plant response rating (0 to 100), Wheat, Spring","wheat, spring",15
same,"Plant response rating: Wheat, Spring","wheat, spring; 62 g ai/ha",20
same,"Plant response rating: Wheat, Spring","wheat, spring; 125 g ai/ha",35
same,"Plant response rating, Ragweed",ragweed; 125 g ai/ha,50
same,"Plant response rating, Ragweed",ragweed; 500 g ai/ha,70
same,Plant response rating: Deadnettle,deadnettle; 16 g ai/ha,55
same,Plant response rating: Deadnettle,deadnettle; 31 g ai/ha,75
same,Plant response rating: Deadnettle,deadnettle; 62 g ai/ha,95
same,Plant response rating: Deadnettle,deadnettle; 125 g ai/ha,100
same,Plant response rating (scale of 0 to 100 where 0 is no effect and 100 is complete control),barnyardgrass; 125 g ai/ha,100
same,Plant response rating (scale of 0 to 100 where 0 is no effect and 100 is complete control),barnyardgrass; 250 g ai/ha,100
same,Barnyardgrass plant response rating (0 to 100),barnyardgrass; 31 g ai/ha,70
same,Barnyardgrass plant response rating (0 to 100),barnyardgrass; 62 g ai/ha,90
same,Plant response rating: Kochia,kochia [1]; 16 g ai/ha,85
same,Plant response rating: Kochia,kochia [1]; 31 g ai/ha,95
same,Plant response rating: Kochia,kochia [1]; 62 g ai/ha,95
same,Plant response rating: Kochia,kochia [1]; 125 g ai/ha,100
same,"Plant response rating (0 to 100), Bluegrass",bluegrass,20
same,Plant response rating: Bluegrass,bluegrass; 31 g ai/ha,55
same,Plant response rating: Bluegrass,bluegrass; 62 g ai/ha,85
same,Plant response rating: Bluegrass,bluegrass; 125 g ai/ha,100
same,Plant response rating (scale of 0 to 100 where 0 is no effect and 100 is complete control),oilseed rape; 125 g ai/ha,100
same,Plant response rating (scale of 0 to 100 where 0 is no effect and 100 is complete control),oilseed rape; 250 g ai/ha,100
same,Oilseed Rape plant response rating (0 to 100),oilseed rape; 31 g ai/ha,90
same,Oilseed Rape plant response rating (0 to 100),oilseed rape; 62 g ai/ha,90
same,Plant response rating (scale of 0 to 100 where 0 is no effect and 100 is complete control),johnsongrass; 125 g ai/ha,80
same,Plant response rating (scale of 0 to 100 where 0 is no effect and 100 is complete control),johnsongrass; 250 g ai/ha,100
same,Johnsongrass plant response rating (0 to 100),johnsongrass; 31 g ai/ha,45
same,Johnsongrass plant response rating (0 to 100),johnsongrass; 62 g ai/ha,80
same,"Plant response rating: Ryegrass, Ital.","ryegrass, Ital.; 16 g ai/ha",15
same,"Plant response rating: Ryegrass, Ital.","ryegrass, Ital.; 31 g ai/ha",20
same,"Plant response rating: Ryegrass, Ital.","ryegrass, Ital.; 62 g ai/ha",35
same,"Plant response rating: Ryegrass, Ital.","ryegrass, Ital.; 125 g ai/ha",60
same,"Plant response rating, Kochia",kochia [2]; 125 g ai/ha,100
same,"Plant response rating, Kochia","kochia [2]; 500 g ai/ha, approx. 10 d",100
same,"Plant response rating (0 to 100), Buckwheat, Wild","buckwheat, wild",65
same,"Plant response rating: Buckwheat, Wild","buckwheat, wild; 31 g ai/ha",80
same,"Plant response rating: Buckwheat, Wild","buckwheat, wild; 62 g ai/ha",70
same,"Plant response rating: Buckwheat, Wild","buckwheat, wild; 125 g ai/ha",85
